Data as given in patent publication US7335248B2, “Marine antifouling coating compositions” (Novus International, Inc., priority 2005, dated 2008).
Values joined by “and” are separate entries in the source; they are usually repeats but may differ in a detail not shown here. Equal entries are not always repeated. Where two headings read alike, the source gives them in different places.

Columns and labels:
barnacle cyprids = experiment: Barnacle cyprid settlement assay (method of Rittschof et al.), EC50 by probit analysis; type: in vivo, Balanus amphitrite amphitrite
Experimental: In this case, the defined effect is that the cyprids have not settled and have not attached to the Petri dish. Thus, in the attached data set, the “set” column indicates the total number of cyprid larvae that have settled and attached on the surface of the Petri dish and “non-set” indicates the total number of cyprids that remain swimming in the seawater and have not settled on the surface of the Petri dish.
Briefly, the barnacle adults are cultured in the laboratory and allowed to spawn naturally. The larvae are harvested and grown in artificial culture systems until they reach the cyprid stage at which time the larvae become competent to attach to surfaces. Once attached, the cyprids transform into a pinhead barnacle, thus becoming permanently attached to the surface. Rittschof D, Clare A S, Gerhart D J, Avelin Mary, Bonavetura J (1991) Barnacle in vitro assays for biologically active substances: toxicity and settlement assays using mass cultured Balanus amphitrite amphitrite Darwin. Biofouling (1992) 6:115-122.
(§1) Five replicates (e.g., a-e) for each concentration and the control were collected.

[1] = Solubility in seawater at the levels added in the cyprid assay; type: physicochemical; conditions: at the levels added (up to 0.1 mg/ml)
Description: as §1

barnacles [2] = experiment: Six month static immersion fouling test of painted PVC panels (open ocean, Tuticorin, India); type: in vivo; conditions: for Total barnacle Count / Mean ± SD (barnacle count): 6 months; for Total barnacle Count: both duplicate panels; for Mean ± SD (barnacle count): four panel surfaces
Description: The reported data were extracted from the raw data as described below, and are shown as total barnacle counts for both duplicate panels of each test formulation. In Table 4, the mean and standard deviation of the data derived from the four panels' surfaces of the duplicate panels for each group. The barnacle counts along the edges were not considered in this evaluation because of the expected uneven coating and inherent tendency of barnacles to first attach to edges. In addition, coatings along the edges can be easily damaged or uneven. Thus, for evaluation purposes only the coated surfaces of the flat areas were considered for this evaluation.
Zinc Omadine was used as the positive control for this series of tests. It is important to note here that fouling is continuous throughout the year at the Tuticorin, India site and the degree of settlement is generally the same for the same coating system.

barnacles [3] = experiment: Nine month static immersion testing in the Indian Ocean; type: in vivo; conditions: 9-month static immersion
Description: Table 5 summarizes the anti-fouling data from the nine-month immersion test, performed as described above for the six month tests.

Oyster = conditions: 5%, 15 months, per panel side
Description: (§2) HMTBA-Cu and HMTBA-Zn were supplied in powdered form by Novus International. […] The formulated paints were applied on PVC test panels (3 inch by 10 inch, ⅛ inch thickness), allowed to dry and shipped to a marine research center at Sacred Heart Marine Research Centre (SHMRC) in Tuticorin, India. The panels were mounted on frames on a floating platform in the open ocean and submerged totally under 3 ft of seawater for a period of 6 months, 9, or 12 months.
(§3) After the completion of the exposure period the panels were taken out of the seawater and transported to the shore laboratory in containers with seawater. The panels were evaluated by digital photography and physical examination of the coated surface. Barnacles were counted on the surface of the panels and along the edges. When there was substantial fouling on the surface, the area of the panel surface covered by barnacle fouling was estimated according to the methods described in ASTM D-3623. The panels were returned to the platform and again placed in total immersion. The panels were out of seawater during the examination for no more than 10 minutes.

Tube-worms = conditions: CuSP paint; 5%; 15 months; per panel side; nitrate trihydrate
Description: as §2, §3

barnacles [4] = conditions: 5%, 15 months, per panel side
Description: as §2, §3

[5] = 1e-5 mg/ml, Total of five replicates
[6] = 1e-4 mg/ml, Total of five replicates
[7] = 0.001 mg/ml, Total of five replicates
[8] = 0.01 mg/ml, Total of five replicates
[9] = 0.1 mg/ml, Total of five replicates

CSCCC(O)C(=O)[O-].CSCCC(O)C(=O)[O-].[Cu+2] (centres unmarked) [HMTBA-Cu, copper 2-hydroxy-4-methylthiobutanoate chelate]
% of set (barnacle cyprids; [5]): 74%
Non set (barnacle cyprids; [5]): 86
Set (barnacle cyprids; [5]): 241
% of set (barnacle cyprids; 1e-5 mg/ml, single replicate): 77% and 70% and 74% and 68% and 82%
Non set (barnacle cyprids; 1e-5 mg/ml, single replicate): 14 and 21 and 15 and 25 and 11
Set (barnacle cyprids; 1e-5 mg/ml, single replicate): 46 and 48 and 42 and 54 and 51
% of set (barnacle cyprids; [6]): 71%
Non set (barnacle cyprids; [6]): 89
Set (barnacle cyprids; [6]): 213
% of set (barnacle cyprids; 1e-4 mg/ml, single replicate): 66% and 79% and 63% and 73% and 72%
Non set (barnacle cyprids; 1e-4 mg/ml, single replicate): 11 and 12 and 29 and 16 and 21
Set (barnacle cyprids; 1e-4 mg/ml, single replicate): 21 and 46 and 49 and 43 and 54
% of set (barnacle cyprids; [7]): 53%
Non set (barnacle cyprids; [7]): 155
Set (barnacle cyprids; [7]): 173
% of set (barnacle cyprids; 0.001 mg/ml, single replicate): 46% and 56% and 42% and 55% and 65%
Non set (barnacle cyprids; 0.001 mg/ml, single replicate): 27 and 34 (2×) and 42 and 18
Set (barnacle cyprids; 0.001 mg/ml, single replicate): 23 and 44 and 31 and 41 and 34
appearance and swimming behavior of cyprids (barnacle cyprids; 0.01 mg/ml and higher (so in the source)): no adverse effects
% of set (barnacle cyprids; [8]): 10%
Non set (barnacle cyprids; [8]): 285
Set (barnacle cyprids; [8]): 30
% of set (barnacle cyprids; 0.01 mg/ml, single replicate): 9% and 6% and 8% (2×) and 24%
Non set (barnacle cyprids; 0.01 mg/ml, single replicate): 79 and 66 and 59 and 25 and 56
Set (barnacle cyprids; 0.01 mg/ml, single replicate): 8 (2×) and 4 and 5 (2×)
toxic effects on the cyprids (barnacle cyprids; 0.1 mg per ml): death of all cyprids
% of set (barnacle cyprids; [9]): 0%
Non set (barnacle cyprids; [9]): 314
Set (barnacle cyprids; [9]): 0
% of set (barnacle cyprids; 0.1 mg/ml, single replicate): 0%
Non set (barnacle cyprids; 0.1 mg/ml, single replicate): 69 and 94 and 54 and 59 and 38
Set (barnacle cyprids; 0.1 mg/ml, single replicate): 0
EC50 (barnacle cyprids; barnacle cyprids not settled/attached to Petri dish, probit analysis): 1.8 µg/mL
inhibition of barnacle cyprid settlement (barnacle cyprids; in vivo): biologically active as inhibitors of barnacle cyprid settlement
SLOPE (barnacle cyprids; probit analysis, barnacle settlement): 1.567
solubility in seawater [1]: soluble in seawater at the levels added
Total barnacle Count (barnacles [2]; CUAB coating, 1% (w/w)): 472
Mean ± SD (barnacle count) (barnacles [2]; CUAB coating, 1% (w/w)): 118.0 ± 158.0
Total barnacle Count (barnacles [2]; CUAB coating, 3% (w/w)): 170
Mean ± SD (barnacle count) (barnacles [2]; CUAB coating, 3% (w/w)): 42.5 ± 21.1
Total barnacle Count (barnacles [2]; CUAB coating, 5% (w/w)): 126
Mean ± SD (barnacle count) (barnacles [2]; CUAB coating, 5% (w/w)): 31.4 ± 46.4
Total barnacle Count (barnacles [2]; CUAB coating, 10% (w/w)): 123
Mean ± SD (barnacle count) (barnacles [2]; CUAB coating, 10% (w/w)): 30.8 ± 12.9
Total barnacle Count (barnacles [2]; CUSP coating, 1% (w/w)): 4
Mean ± SD (barnacle count) (barnacles [2]; CUSP coating, 1% (w/w)): 1.0 ± 1.7
Total barnacle Count (barnacles [2]; CUSP coating, 3% (w/w)): 6
Mean ± SD (barnacle count) (barnacles [2]; CUSP coating, 3% (w/w)): 1.5 ± 2.6
Total barnacle Count (barnacles [2]; CUSP coating, 5% (w/w)): 8
Mean ± SD (barnacle count) (barnacles [2]; CUSP coating, 5% (w/w)): 2.0 ± 2.4
Total barnacle Count (barnacles [2]; CUSP coating, 10% (w/w)): 9
Mean ± SD (barnacle count) (barnacles [2]; CUSP coating, 10% (w/w)): 2.3 ± 1.9
Total barnacle Count (barnacles [2]; MFAB coating, 1% (w/w)): 8
Mean ± SD (barnacle count) (barnacles [2]; MFAB coating, 1% (w/w)): 2.0 ± 2.4
Total barnacle Count (barnacles [2]; MFAB coating, 3% (w/w)): 13
Mean ± SD (barnacle count) (barnacles [2]; MFAB coating, 3% (w/w)): 3.3 ± 4.5
Total barnacle Count (barnacles [2]; MFAB coating, 5% (w/w)): 11
Mean ± SD (barnacle count) (barnacles [2]; MFAB coating, 5% (w/w)): 2.8 ± 4.2
Total barnacle Count (barnacles [2]; MFAB coating, 10% (w/w)): 4
Mean ± SD (barnacle count) (barnacles [2]; MFAB coating, 10% (w/w)): 1.0 ± 1.7
efficacy / barnacle settlement (barnacles [2]; copper self-polishing and metal-free ablative coatings, six months of exposure): significant efficacy
LS MEAN BARNACLES (barnacles [3]; CUSP PAINT): 16
LS MEAN BARNACLES (barnacles [3]; MFAB PAINT): 1.25

O.O.O.O=[N+]([O-])[O-].O=[N+]([O-])[O-].[Cu+2] [Copper (II) Nitrate trihydrate, copper (II) nitrate trihydrate]
No. of Oyster (Oyster; CuAB paint): 1
No. of Oyster (Oyster; CuSP paint): 2
No. of Tube-worms (Tube-worms): 2 and 1
edge No of Barnacles (barnacles [4]; CuAB paint): 3
Maximum diameter in mm (barnacles [4]; CuAB paint, nitrate trihydrate): 10 mm and 11 mm and 9 mm
No. of barnacles on the coated surface (barnacles [4]; CuSP paint): 84
% of the surface with barnacles fouling (barnacles [4]; CuSP paint, nitrate trihydrate): 50% and 40% and 60%
Maximum diameter in mm (barnacles [4]; CuSP paint, nitrate trihydrate): 10 mm and 11 mm
